In PubChem BioAssay (NCI):
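GI50 = concentration required for 50% inhibition of growth. TGI is the concentration that stops growth completely.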

Experiments:
Test in all cases: DTP human tumour cell line panel, 384-well format
786-0 renal = tested on: 786-0 renal
A498 renal = tested on: A498 renal
A549 NSCLC = tested on: A549 NSCLC
ACHN renal = tested on: ACHN renal
BT-549 breast = tested on: BT-549 breast
CAKI-1 renal = tested on: CAKI-1 renal
CCRF-CEM leukemia = tested on: CCRF-CEM leukemia
COLO 205 colon = tested on: COLO 205 colon
DU-145 prostate = tested on: DU-145 prostate
HCC-2998 colon = tested on: HCC-2998 colon
HCT-116 colon = tested on: HCT-116 colon
HCT-15 colon = tested on: HCT-15 colon
HL-60(TB) leukemia = tested on: HL-60(TB) leukemia
HOP-62 NSCLC = tested on: HOP-62 NSCLC
HOP-92 NSCLC = tested on: HOP-92 NSCLC
HT29 colon = tested on: HT29 colon
IGROV1 ovarian = tested on: IGROV1 ovarian
K-562 leukemia = tested on: K-562 leukemia
KM12 colon = tested on: KM12 colon
LOX IMVI melanoma = tested on: LOX IMVI melanoma
M14 melanoma = tested on: M14 melanoma
MALME-3M melanoma = tested on: MALME-3M melanoma
MCF7 breast = tested on: MCF7 breast
MDA-MB-231 breast = tested on: MDA-MB-231 breast
MDA-MB-435 melanoma = tested on: MDA-MB-435 melanoma
MDA-MB-468 breast = tested on: MDA-MB-468 breast
MOLT-4 leukemia = tested on: MOLT-4 leukemia
NCI-H226 lung = tested on: NCI-H226 lung
NCI-H23 lung = tested on: NCI-H23 lung
NCI-H322M lung = tested on: NCI-H322M lung
NCI-H460 NSCLC = tested on: NCI-H460 NSCLC
NCI-H522 lung = tested on: NCI-H522 lung
NCI/ADR-RES ovarian = tested on: NCI/ADR-RES ovarian
OVCAR-3 ovarian = tested on: OVCAR-3 ovarian
OVCAR-4 ovarian = tested on: OVCAR-4 ovarian
OVCAR-5 ovarian = tested on: OVCAR-5 ovarian
OVCAR-8 ovarian = tested on: OVCAR-8 ovarian
PC-3 prostate = tested on: PC-3 prostate
RPMI-8226 leukemia = tested on: RPMI-8226 leukemia
RXF 393 renal = tested on: RXF 393 renal
SF-268 CNS = tested on: SF-268 CNS
SF-295 CNS = tested on: SF-295 CNS
SF-539 CNS = tested on: SF-539 CNS
SK-MEL-2 melanoma = tested on: SK-MEL-2 melanoma
SK-MEL-28 melanoma = tested on: SK-MEL-28 melanoma
SK-MEL-5 melanoma = tested on: SK-MEL-5 melanoma
SK-OV-3 ovarian = tested on: SK-OV-3 ovarian
SN12C renal = tested on: SN12C renal
SNB-19 CNS = tested on: SNB-19 CNS
SR leukemia = tested on: SR leukemia
SW-620 colon = tested on: SW-620 colon
T-47D breast = tested on: T-47D breast
TK-10 renal = tested on: TK-10 renal
U251 glioblastoma = tested on: U251 glioblastoma
UACC-257 melanoma = tested on: UACC-257 melanoma
UACC-62 melanoma = tested on: UACC-62 melanoma
UO-31 renal = tested on: UO-31 renal

Structure (SMILES): COc1ccc(CC(NC(=O)[C@H](C)NC(=O)CN2CCOCC2)C(=O)N[C@@H](Cc2ccccc2)C(=O)[C@@]2(C)CO2)cc1 (some centres undefined)
- GI50 ([…]-0 renal): 0.297 µM
- TGI (786-0 renal): 1.03 µM
- GI50 (A498 renal): 0.226 µM
- TGI (A498 renal): 0.545 µM
- GI50 (A549 NSCLC): 0.319 µM
- TGI (A549 NSCLC): 1.08 µM
- GI50 (ACHN renal): 0.509 µM
- TGI (ACHN renal): 1.69 µM
- GI50 (BT-549 breast): 0.175 µM
- TGI (BT-549 breast): 0.316 µM
- GI50 (CAKI-1 renal): 0.271 µM
- TGI (CAKI-1 renal): 0.765 µM
- GI50 (CCRF-CEM leukemia): 0.0374 µM
- TGI (CCRF-CEM leukemia): 0.137 µM
- GI50 (COLO 205 colon): 0.304 µM
- TGI (COLO 205 colon): 1.01 µM
- GI50 (DU-145 prostate): 0.302 µM
- TGI (DU-145 prostate): 0.861 µM
- GI50 (HCC-2998 colon): 0.173 µM
- TGI (HCC-2998 colon): 0.312 µM
- GI50 (HCT-116 colon): 0.167 µM
- TGI (HCT-116 colon): 0.309 µM
- GI50 (HCT-15 colon): 1.81 µM
- TGI (HCT-15 colon): 3.39 µM
- GI50 (HL-60(TB) leukemia): 0.147 µM
- TGI (HL-60(TB) leukemia): 0.28 µM
- GI50 (HOP-62 NSCLC): 0.184 µM
- TGI (HOP-62 NSCLC): 0.331 µM
- GI50 (HOP-92 NSCLC): 0.149 µM
- TGI (HOP-92 NSCLC): 0.294 µM
- GI50 (HT29 colon): 0.181 µM
- TGI (HT29 colon): 0.33 µM
- GI50 (IGROV1 ovarian): 0.255 µM
- TGI (IGROV1 ovarian): 0.647 µM
- GI50 (K-562 leukemia): 0.224 µM
- TGI (K-562 leukemia): 0.468 µM
- GI50 (KM12 colon): 0.165 µM
- TGI (KM12 colon): 0.308 µM
- GI50 (LOX IMVI melanoma): 0.209 µM
- TGI (LOX IMVI melanoma): 0.355 µM
- GI50 (M14 melanoma): 0.142 µM
- TGI (M14 melanoma): 0.278 µM
- GI50 (MALME-3M melanoma): 0.136 µM
- TGI (MALME-3M melanoma): 0.281 µM
- GI50 (MCF7 breast): 0.138 µM
- TGI (MCF7 breast): 0.382 µM
- GI50 (MDA-MB-231 breast): 0.166 µM
- TGI (MDA-MB-231 breast): 0.309 µM
- GI50 (MDA-MB-435 melanoma): 0.141 µM
- TGI (MDA-MB-435 melanoma): 0.281 µM
- GI50 (MDA-MB-468 breast): 0.18 µM
- TGI (MDA-MB-468 breast): 0.324 µM
- GI50 (MOLT-4 leukemia): 0.0155 µM
- TGI (MOLT-4 leukemia): 0.0289 µM
- GI50 (NCI-H226 lung): 0.0605 µM
- TGI (NCI-H226 lung): 0.186 µM
- GI50 (NCI-H23 lung): 0.21 µM
- TGI (NCI-H23 lung): 0.362 µM
- GI50 (NCI-H322M lung): 0.284 µM
- TGI (NCI-H322M lung): 0.86 µM
- GI50 (NCI-H460 NSCLC): 0.181 µM
- TGI (NCI-H460 NSCLC): 0.355 µM
- GI50 (NCI-H522 lung): 0.167 µM
- TGI (NCI-H522 lung): 0.304 µM
- GI50 (NCI/ADR-RES ovarian): 20.4 µM
- TGI (NCI/ADR-RES ovarian): 59.4 µM
- GI50 (OVCAR-3 ovarian): 0.131 µM
- TGI (OVCAR-3 ovarian): 0.262 µM
- GI50 (OVCAR-4 ovarian): 0.147 µM
- TGI (OVCAR-4 ovarian): 0.284 µM
- GI50 (OVCAR-5 ovarian): 0.192 µM
- TGI (OVCAR-5 ovarian): 0.36 µM
- GI50 (OVCAR-8 ovarian): 0.184 µM
- TGI (OVCAR-8 ovarian): 0.34 µM
- GI50 (PC-3 prostate): 0.188 µM
- TGI (PC-3 prostate): 0.333 µM
- GI50 (RPMI-8226 leukemia): 0.0238 µM
- TGI (RPMI-8226 leukemia): 0.0554 µM
- GI50 (RXF 393 renal): 0.135 µM
- TGI (RXF 393 renal): 0.268 µM
- GI50 (SF-268 CNS): 0.136 µM
- TGI (SF-268 CNS): 0.269 µM
- GI50 (SF-295 CNS): 0.157 µM
- TGI (SF-295 CNS): 0.294 µM
- GI50 (SF-539 CNS): 0.175 µM
- TGI (SF-539 CNS): 0.315 µM
- GI50 (SK-MEL-2 melanoma): 0.0226 µM
- TGI (SK-MEL-2 melanoma): 0.0938 µM
- GI50 (SK-MEL-28 melanoma): 0.132 µM
- TGI (SK-MEL-28 melanoma): 0.262 µM
- GI50 (SK-MEL-5 melanoma): 0.192 µM
- TGI (SK-MEL-5 melanoma): 0.345 µM
- GI50 (SK-OV-3 ovarian): 0.171 µM
- TGI (SK-OV-3 ovarian): 0.312 µM
- GI50 (SN12C renal): 0.179 µM
- TGI (SN12C renal): 0.32 µM
- GI50 (SNB-19 CNS): 0.188 µM
- TGI (SNB-19 CNS): 0.347 µM
- GI50 (SR leukemia): 0.0304 µM
- TGI (SR leukemia): 0.106 µM
- GI50 (SW-620 colon): 0.167 µM
- TGI (SW-620 colon): 0.312 µM
- GI50 (T-47D breast): 0.159 µM
- TGI (T-47D breast): 0.302 µM
- GI50 (TK-10 renal): 0.298 µM
- TGI (TK-10 renal): 0.802 µM
- GI50 (U251 glioblastoma): 0.173 µM
- TGI (U251 glioblastoma): 0.316 µM
- GI50 (UACC-257 melanoma): 0.123 µM
- TGI (UACC-257 melanoma): 0.253 µM
- GI50 (UACC-62 melanoma): 0.126 µM
- TGI (UACC-62 melanoma): 0.254 µM
- GI50 (UO-31 renal): 1.75 µM
- TGI (UO-31 renal): 3.17 µM
